How the values were obtained:
[1] = tested on: Geobacillus stearothermophilus spores; assay: Validation tests for disinfection of laboratory utensils sprinkled with spore suspension SAL 10^6; format: cell-based; details: for Biological Result #not sterile/#tested: PES in solution 4 %
[2] = tested on: human patellar tendon allografts; details: in vitro study, human patellar tendon allografts [98]; cited from earlier work
[3] = tested on: Geobacillus stearothermophilus spores; assay: Validation tests for disinfection of bio-indicator spore strips SAL 10^5; format: cell-based; details: 50-55° C.

Q: With `CC(=O)OO` [PES, peracetic acid] as the molecule, how does the “Biological Result #not sterile/#tested” value ([1]; test 5, PES in process chamber 1.9 g/m^3, process duration 120 min) read?
A: 0/4

Q: What about the “Biological Result #not sterile/#tested” value ([1]; test 7, PES in process chamber 1.9 g/m^3, process duration 60 min) of the same molecule?
A: 0/4

Q: What about the “Biological Result #not sterile/#tested” value ([1]; test 8, PES in process chamber 1.9 g/m^3, process duration 45 min) of the same molecule?
A: 0/4

Q: And the “Biological Result #not sterile/#tested” value ([1]; test 12, PES in process chamber 1.9 g/m^3, process duration 15 min)?
A: 0/4

Q: What about the “Biological Result #not sterile/#tested” value ([1]; test 13, PES in process chamber 1.9 g/m^3, process duration 10 min) of the same molecule?
A: 0/4

Q: What about the “Biological Result #not sterile/#tested” value ([1]; test 14, PES in process chamber 1.9 g/m^3, process duration 5 min) of the same molecule?
A: 0/4

Q: And the “Biological Result #not sterile/#tested” value ([1]; test 15, PES in process chamber 1.7 g/m^3, process duration 20 min)?
A: 0/4

Q: What about the “Biological Result #not sterile/#tested” value ([1]; test 16, PES in process chamber 1.7 g/m^3, process duration 15 min) of the same molecule?
A: 0/4

Q: And the “Biological Result #not sterile/#tested” value ([1]; test 19, PES in process chamber 1.3 g/m^3, process duration 20 min)?
A: 0/4

Q: What about the “Biological Result #not sterile/#tested” value ([1]; test 20, PES in process chamber 1.3 g/m^3, process duration 15 min) of the same molecule?
A: 0/4

Q: What about the “Biological Result #not sterile/#tested” value ([1]; test 21, PES in process chamber 0.94 g/m^3, process duration 60 min) of the same molecule?
A: 0/4

Q: What about the “Biological Result #not sterile/#tested” value ([1]; test 22, PES in process chamber 0.94 g/m^3, process duration 40 min) of the same molecule?
A: 0/4

Q: And the “Biological Result #not sterile/#tested” value ([1]; test 23, PES in process chamber 0.94 g/m^3, process duration 30 min, not sterile: pipette)?
A: (pipette) 1/8

Q: And the “Biological Result #not sterile/#tested” value ([1]; test 24, PES in process chamber 0.94 g/m^3, process duration 20 min)?
A: 0/8

Q: What about the “Biological Result #not sterile/#tested” value ([1]; test 25, PES in process chamber 0.94 g/m^3, process duration 15 min, not sterile: pipette) of the same molecule?
A: (pipette) 1/4

Q: And the “Biological Result #not sterile/#tested” value ([1]; test 26, PES in process chamber 0.94 g/m^3, process duration 10 min)?
A: 0/4

Q: And the “Biological Result #not sterile/#tested” value ([1]; test 27, PES in process chamber 0.94 g/m^3, process duration 5 min, not sterile: pipette)?
A: (pipette) 1/4

Q: And the “Biological Result #not sterile/#tested” value ([1]; test 28, PES in process chamber 0.47 g/m^3, process duration 60 min)?
A: 0/4

Q: What about the “Biological Result #not sterile/#tested” value ([1]; test 29, PES in process chamber 0.47 g/m^3, process duration 30 min) of the same molecule?
A: 0/4

Q: And the “Biological Result #not sterile/#tested” value ([1]; test 30, PES in process chamber 0.47 g/m^3, process duration 15 min, not sterile: Eppi)?
A: (Eppi) 1/4

Q: What about the “Biological Result #not sterile/#tested” value ([1]; test 31, PES in process chamber 0.47 g/m^3, process duration 10 min, not sterile: pipette) of the same molecule?
A: (pipette) 1/4

Q: And the “Biological Result #not sterile/#tested” value ([1]; test 32, PES in process chamber 0.47 g/m^3, process duration 5 min, not sterile: mask, pipette)?
A: (mask, pipette) 2/4

Q: And the “spore growth after seven days in nutrient solution” value ([1]; various tests, relatively low PES concentration in the process chamber and short process duration)?
A: spore growth was observed after seven days

Q: And the “cytotoxic and pro-inflammatory effects” value [2]?
A: neither cytotoxic nor pro-inflammatory effects

Q: What about the “growth or proliferation of the spores after treatment” value ([3]; all spore strips tested at different PES concentrations and different processing times) of the same molecule?
A: no growth or proliferation of the spores could be detected

Q: What about the “Biological Result #not sterile/#tested” value ([3]; test 1, PES in solution 6 %, PES in process chamber 3 g/m^3, process duration 240 min) of the same molecule?
A: 0/2

Q: And the “Biological Result #not sterile/#tested” value ([3]; test 2, PES in solution 6 %, PES in process chamber 3 g/m^3, process duration 120 min)?
A: 0/1

Q: And the “Biological Result #not sterile/#tested” value ([3]; test 3, PES in solution 6 %, PES in process chamber 1.7 g/m^3, process duration 150 min)?
A: 0/2

Q: What about the “Biological Result #not sterile/#tested” value ([3]; test 4, PES in solution 4 %, PES in process chamber 2 g/m^3, process duration 120 min) of the same molecule?
A: 0/1

Q: What about the “Biological Result #not sterile/#tested” value ([3]; test 5, PES in solution 4 %, PES in process chamber 1.9 g/m^3, process duration 120 min) of the same molecule?
A: 0/2

Q: What about the “Biological Result #not sterile/#tested” value ([3]; test 6, PES in solution 4 %, PES in process chamber 1.9 g/m^3, process duration 90 min) of the same molecule?
A: 0/2

Q: And the “Biological Result #not sterile/#tested” value ([3]; test 7, PES in solution 4 %, PES in process chamber 1.9 g/m^3, process duration 60 min)?
A: 0/4

Q: And the “Biological Result #not sterile/#tested” value ([3]; test 8, PES in solution 4 %, PES in process chamber 1.9 g/m^3, process duration 45 min)?
A: 0/1

Q: What about the “Biological Result #not sterile/#tested” value ([3]; test 9, PES in solution 4 %, PES in process chamber 1.9 g/m^3, process duration 40 min) of the same molecule?
A: 0/2

Q: And the “Biological Result #not sterile/#tested” value ([3]; test 10, PES in solution 4 %, PES in process chamber 1.9 g/m^3, process duration 30 min)?
A: 0/2

Q: And the “Biological Result #not sterile/#tested” value ([3]; test 11, PES in solution 4 %, PES in process chamber 1.9 g/m^3, process duration 20 min)?
A: 0/2

Q: What about the “Biological Result #not sterile/#tested” value ([3]; test 12, PES in solution 4 %, PES in process chamber 1.9 g/m^3, process duration 15 min) of the same molecule?
A: 0/1

Q: What about the “Biological Result #not sterile/#tested” value ([3]; test 13, PES in solution 4 %, PES in process chamber 1.9 g/m^3, process duration 10 min) of the same molecule?
A: 0/1

Q: What about the “Biological Result #not sterile/#tested” value ([3]; test 14, PES in solution 4 %, PES in process chamber 1.9 g/m^3, process duration 5 min) of the same molecule?
A: 0/1

Q: What about the “Biological Result #not sterile/#tested” value ([3]; test 15, PES in solution 4 %, PES in process chamber 1.7 g/m^3, process duration 20 min) of the same molecule?
A: 0/1

Q: And the “Biological Result #not sterile/#tested” value ([3]; test 16, PES in solution 4 %, PES in process chamber 1.7 g/m^3, process duration 15 min)?
A: 0/1

Q: And the “Biological Result #not sterile/#tested” value ([3]; test 17, PES in solution 4 %, PES in process chamber 1.5 g/m^3, process duration 240 min)?
A: 0/2

Q: What about the “Biological Result #not sterile/#tested” value ([3]; test 18, PES in solution 4 %, PES in process chamber 1.5 g/m^3, process duration 150 min) of the same molecule?
A: 0/2

Q: What about the “Biological Result #not sterile/#tested” value ([3]; test 19, PES in solution 4 %, PES in process chamber 1.3 g/m^3, process duration 20 min) of the same molecule?
A: 0/1

Q: What about the “Biological Result #not sterile/#tested” value ([3]; test 20, PES in solution 4 %, PES in process chamber 1.3 g/m^3, process duration 15 min) of the same molecule?
A: 0/1

Q: What about the “Biological Result #not sterile/#tested” value ([3]; test 21, PES in solution 4 %, PES in process chamber 0.94 g/m^3, process duration 60 min) of the same molecule?
A: 0/5

Q: What about the “Biological Result #not sterile/#tested” value ([3]; test 22, PES in solution 4 %, PES in process chamber 0.94 g/m^3, process duration 40 min) of the same molecule?
A: 0/1

Q: What about the “Biological Result #not sterile/#tested” value ([3]; test 23, PES in solution 4 %, PES in process chamber 0.94 g/m^3, process duration 30 min) of the same molecule?
A: 0/2

Q: And the “Biological Result #not sterile/#tested” value ([3]; test 24, PES in solution 4 %, PES in process chamber 0.94 g/m^3, process duration 20 min)?
A: 0/2

Q: What about the “Biological Result #not sterile/#tested” value ([3]; test 25, PES in solution 4 %, PES in process chamber 0.94 g/m^3, process duration 15 min) of the same molecule?
A: 0/1

Q: And the “Biological Result #not sterile/#tested” value ([3]; test 26, PES in solution 4 %, PES in process chamber 0.94 g/m^3, process duration 10 min)?
A: 0/1

Q: What about the “Biological Result #not sterile/#tested” value ([3]; test 27, PES in solution 4 %, PES in process chamber 0.94 g/m^3, process duration 5 min) of the same molecule?
A: 0/1

Q: What about the “Biological Result #not sterile/#tested” value ([3]; test 28, PES in solution 4 %, PES in process chamber 0.47 g/m^3, process duration 60 min) of the same molecule?
A: 0/1

Q: What about the “Biological Result #not sterile/#tested” value ([3]; test 29, PES in solution 4 %, PES in process chamber 0.47 g/m^3, process duration 30 min) of the same molecule?
A: 0/1

Q: And the “Biological Result #not sterile/#tested” value ([3]; test 30, PES in solution 4 %, PES in process chamber 0.47 g/m^3, process duration 15 min)?
A: 0/1

Q: What about the “Biological Result #not sterile/#tested” value ([3]; test 31, PES in solution 4 %, PES in process chamber 0.47 g/m^3, process duration 10 min) of the same molecule?
A: 0/1

Q: And the “Biological Result #not sterile/#tested” value ([3]; test 32, PES in solution 4 %, PES in process chamber 0.47 g/m^3, process duration 5 min)?
A: 0/1
